Reference: PMC5011342, “A high throughput drug screening assay to identify compounds that promote oligodendrocyte differentiation using acutely dissociated and purified oligodendrocyte precursor cells” (BMC Research Notes, 2016)
Read-outs that look alike come from different tables or passages of the source.

Assays:
[1] = tested on: expanded OPCs; test: cells; conditions: for viability at 0.1 µM / viability at 1 µM / viability at 10 µM: Rattus norvegicus, 72 h
Procedure, shortened: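 Toxicity screen: compounds added at 0.1, 1 and 10 µM to PDGF-AA-expanded OPCs in 96-well plates, 3-day incubation at 37 °C, 10% CO2, then alamarBlue 1:10 for 4 h with fluorescence readout. Results set screening doses of 10/2, 2/0.4 or 0.4/0.08 µM.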

[2] = tested on: acutely dissociated and purified rat OPCs; test: Acute OL differentiation assay (MBP expression/cell, immunofluorescent image quantification); format: cell-based
Procedure, shortened: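 This acute differentiation assay used purified rat OPCs from postnatal day 6–7 pups, seeded into PDL/laminin-coated 96-well plates in differentiation medium lacking PDGF and FGF. Compounds were applied in quadruplicate after a 1–2 h preincubation at 37 °C, 10 % CO2, with 0.1 % DMSO negative and 40 ng/ml T3 positive controls in eight wells. After fixation on DIV4, anti-MBP immunofluorescence images yielded MBP expression/cell.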

[3] = read-out: 0.1 µM (% DMSO), alamarBlue viability of expanded OPCs, compound at 0.1 µM, sheet All Tox data
[4] = read-out: 1 µM (% DMSO), alamarBlue viability of expanded OPCs, compound at 1 µM, sheet All Tox data
[5] = read-out: 10 µM (% DMSO), alamarBlue viability of expanded OPCs, compound at 10 µM, sheet All Tox data
[6] = Rattus norvegicus, 2 uM test compound, relative to quetiapine, sheet "All OLga data", read-out: OL differentiation, 2 uM (% Quet)
[7] = alamarBlue viability of expanded OPCs, compound at 0.1 µM, relative to DMSO control
[8] = alamarBlue viability of expanded OPCs, compound at 1 µM, relative to DMSO control
[9] = alamarBlue viability of expanded OPCs, compound at 10 µM, relative to DMSO control
[10] = Rattus norvegicus, test compound at 2 uM, NCC library screen, sheet "All OLga data", relative to quetiapine, read-out: 2 uM (% Quet)
[11] = Rattus norvegicus, test compound at 10 uM, NCC library screen, sheet "All OLga data", relative to quetiapine, read-out: 10 uM (% Quet)
[12] = alamarBlue viability, NCC library compound at 0.1 µM, sheet "All Tox data"
[13] = alamarBlue viability, NCC library compound at 1 µM, sheet "All Tox data"
[14] = alamarBlue viability, NCC library compound at 10 µM, sheet "All Tox data"
[15] = test compound at 2 uM, NCC library screen, sheet "All OLga data", relative to quetiapine
[16] = test compound at 10 uM, NCC library screen, sheet "All OLga data", relative to quetiapine
[17] = Rattus norvegicus, 10 uM test compound, relative to quetiapine, sheet "All OLga data", read-out: OL differentiation, 10 uM (% Quet)
[18] = Rattus norvegicus, test compound at 2 uM, MBP expression relative to quetiapine, NCC library screen, sheet "All OLga data", read-out: 2 uM (% Quet)
[19] = Rattus norvegicus, test compound at 10 uM, MBP expression relative to quetiapine, NCC library screen, sheet "All OLga data", read-out: 10 uM (% Quet)
[20] = read-out: 0.1 µM (% DMSO), alamarBlue viability, NCC library compound at 0.1 µM, sheet "All Tox data"
[21] = read-out: 1 µM (% DMSO), alamarBlue viability, NCC library compound at 1 µM, sheet "All Tox data"
[22] = read-out: 10 µM (% DMSO), alamarBlue viability, NCC library compound at 10 µM, sheet "All Tox data"

## COCCCC/C(=N\OCCN)c1ccc(C(F)(F)F)cc1 [Fluvoxamine]
[1]; [3]
  viability at 0.1 µM: 79.1%
[1]; [4]
  viability at 1 µM: 67.7%
[1]; [5]
  viability at 10 µM: 40%
[2]; Rattus norvegicus, 0.4 uM test compound, relative to quetiapine, sheet "All OLga data", read-out: OL differentiation, 0.4 uM (% Quet)
  activation at 0.4 µM: 3.3%
[2]; [6]
  activation at 2 µM: 23.1%

## Nc1nc2ncc(CNc3ccc(C(=O)N[C@@H](CCC(=O)O)C(=O)O)cc3)nc2c(=O)[nH]1 [Folic acid]
[1]; [7]
  0.1 µM (% DMSO): 110.4 % DMSO
[1]; [8]
  1 µM (% DMSO): 104.7 % DMSO
[1]; [9]
  10 µM (% DMSO): 104.5 % DMSO
[2]; [10]
  activation at 2 µM: -16.1%
[2]; [11]
  activation at 10 µM: -12.9%

## NS(=O)(=O)c1cc(C(=O)O)c(NCc2ccco2)cc1Cl [Furosemide]
[1]; [7]
  0.1 µM (% DMSO): 87.5 % DMSO
[1]; [8]
  1 µM (% DMSO): 91.0 % DMSO
[1]; [9]
  10 µM (% DMSO): 97.3 % DMSO
[2]; [10]
  activation at 2 µM: 6%
[2]; [11]
  activation at 10 µM: -6%

## COC(=O)N1CCN(C(=O)Cc2ccc(Cl)c(Cl)c2)C(CN2CCCC2)C1 (stereo not shown) [GR 89696]
[1]; [12]
  0.1 µM (% DMSO): 94.6 % DMSO
[1]; [13]
  1 µM (% DMSO): 83.7 % DMSO
[1]; [14]
  10 µM (% DMSO): 70.7 % DMSO
[2]; [15]
  2 uM (% Quet): 34.9 % Quet
[2]; [16]
  10 uM (% Quet): 63.5 % Quet

## CCOC(=O)c1ccc(OC(=O)CCCCCNC(=N)N)cc1 [Gabexate]
[1]; [3]
  viability at 0.1 µM: 105%
[1]; [4]
  viability at 1 µM: 109%
[1]; [5]
  viability at 10 µM: 123%
[2]; [6]
  activation at 2 µM: 12.6%
[2]; [17]
  activation at 10 µM: 7.2%

## COc1ccc2c3c1O[C@H]1C[C@@H](O)C=C[C@@]31CCN(C)C2 [Galantamine]
[1]; [3]
  viability at 0.1 µM: 86.2%
[1]; [4]
  viability at 1 µM: 81.7%
[1]; [5]
  viability at 10 µM: 81.5%
[2]; [6]
  activation at 2 µM: 14.9%
[2]; [17]
  activation at 10 µM: 16.4%

## Nc1nc(O)c2ncn(COC(CO)CO)c2n1 [Ganciclovir]
[1]; [7]
  0.1 µM (% DMSO): 103.0 % DMSO
[1]; [8]
  1 µM (% DMSO): 100.7 % DMSO
[1]; [9]
  10 µM (% DMSO): 106.5 % DMSO
[2]; [18]
  activation at 2 µM: 3.8%
[2]; [19]
  activation at 10 µM: -9.7%

## COc1c(N2CCNC(C)C2)c(F)cc2c(=O)c(C(=O)O)cn(C3CC3)c12 (stereo not shown) [Gatifloxacin]
[1]; [7]
  0.1 µM (% DMSO): 99.4 % DMSO
[1]; [8]
  1 µM (% DMSO): 98.0 % DMSO
[1]; [9]
  10 µM (% DMSO): 96.4 % DMSO
[2]; [18]
  activation at 2 µM: 34.6%
[2]; [19]
  activation at 10 µM: 24.6%

## Cc1ccc(C)c(OCCCC(C)(C)C(=O)O)c1 [Gemfibrozil]
[1]; [7]
  0.1 µM (% DMSO): 90.1 % DMSO
[1]; [8]
  1 µM (% DMSO): 88.1 % DMSO
[1]; [9]
  10 µM (% DMSO): 86.3 % DMSO
[2]; [10]
  activation at 2 µM: 0.66%
[2]; [11]
  activation at 10 µM: 16.1%

## CCC1=C(C)CN(C(=O)NCCc2ccc(S(=O)(=O)NC(=O)N[C@H]3CC[C@H](C)CC3)cc2)C1=O [Glimepiride]
[1]; [20]
  viability at 0.1 µM: 97.2%
[1]; [21]
  viability at 1 µM: 82.6%
[1]; [22]
  viability at 10 µM: 83.6%
[2]; [10]
  activation at 2 µM: -12.7%
[2]; [11]
  activation at 10 µM: -54%

## Cc1cnc(C(=O)NCCc2ccc(S(=O)(=O)NC(=O)NC3CCCCC3)cc2)cn1 [Glipizide]
[1]; [7]
  0.1 µM (% DMSO): 88.0 % DMSO
[1]; [8]
  1 µM (% DMSO): 86.3 % DMSO
[1]; [9]
  10 µM (% DMSO): 83.0 % DMSO
[2]; [10]
  activation at 2 µM: 6.4%
[2]; [11]
  activation at 10 µM: 8.4%

## COc1ccc(Cl)cc1C(=O)NCCc1ccc(S(=O)(=O)NC(=O)NC2CCCCC2)cc1 [Glyburide]
[1]; [7]
  0.1 µM (% DMSO): 95.4 % DMSO
[1]; [8]
  1 µM (% DMSO): 91.5 % DMSO
[1]; [9]
  10 µM (% DMSO): 85.2 % DMSO
[2]; [10]
  activation at 2 µM: -19.5%
[2]; [11]
  activation at 10 µM: -20.2%

## C[N+]1(C)CCC(OC(=O)C(O)(c2ccccc2)C2CCCC2)C1 (stereo not shown) [Glycopyrrolate]
[1]; [20]
  viability at 0.1 µM: 96.7%
[1]; [21]
  viability at 1 µM: 91.4%
[1]; [22]
  viability at 10 µM: 115%
[1]; [7]
  0.1 µM (% DMSO): 100.4 % DMSO
[1]; [8]
  1 µM (% DMSO): 104.4 % DMSO
[1]; [9]
  10 µM (% DMSO): 113.1 % DMSO
[2]; [18]
  activation at 2 µM: 26.7%
[2]; [10]
  activation at 2 µM: 7.1%
[2]; [19]
  activation at 10 µM: 27.6%
[2]; [11]
  activation at 10 µM: 19.5%

## CC(C)C[C@H](NC(=O)[C@@H](COC(C)(C)C)NC(=O)[C@H](Cc1ccc(O)cc1)NC(=O)[C@H](CO)NC(=O)[C@H](Cc1c[nH]c2ccccc12)NC(=O)[C@H](Cc1cnc[nH]1)NC(=O)[C@@H]1CCC(=O)N1)C(=O)N[C@@H](CCCNC(=N)N)C(=O)N1CCC[C@H]1C(=O)NNC(N)=O [Goserelin]
[1]; [12]
  0.1 µM (% DMSO): 95.7 % DMSO
[1]; [13]
  1 µM (% DMSO): 94.5 % DMSO
[1]; [14]
  10 µM (% DMSO): 97.2 % DMSO
[2]; [15]
  2 uM (% Quet): -6.3 % Quet
[2]; [16]
  10 uM (% Quet): 5.4 % Quet

## CN1C2CCCC1CC(NC(=O)c1nn(C)c3ccccc13)C2 (stereo not shown) [Granisetron]
[1]; [20]
  viability at 0.1 µM: 84.1%
[1]; [21]
  viability at 1 µM: 87.1%
[1]; [22]
  viability at 10 µM: 72.4%
[2]; [10]
  activation at 2 µM: -25.3%
[2]; [11]
  activation at 10 µM: -23.7%

## COC1=CC(=O)C[C@@H](C)[C@]12Oc1c(Cl)c(OC)cc(OC)c1C2=O [Griseofulvin]
[1]; [7]
  0.1 µM (% DMSO): 95.9 % DMSO
[1]; [8]
  1 µM (% DMSO): 93.1 % DMSO
[1]; [9]
  10 µM (% DMSO): 66.2 % DMSO
[2]; [18]
  activation at 2 µM: -7.2%
[2]; [19]
  activation at 10 µM: -53.4%

## N=C(N)N [Guanidine]
[1]; [12]
  0.1 µM (% DMSO): 86.5 % DMSO
[1]; [13]
  1 µM (% DMSO): 89.1 % DMSO
[1]; [14]
  10 µM (% DMSO): 85.5 % DMSO
[2]; [15]
  2 uM (% Quet): 1.4 % Quet
[2]; [16]
  10 uM (% Quet): 5.3 % Quet

## C[C@@H]1C[C@H]2[C@@H]3C[C@H](F)C4=CC(=O)C(Cl)=C[C@]4(C)[C@@]3(F)[C@@H](O)C[C@]2(C)[C@@]1(O)C(=O)CO.O [Halometasone hydrate]
[1]; alamarBlue viability of expanded OPCs, compound at 0.1 µM, sheet All Tox data
  0.1 µM (% DMSO): 103.7 % DMSO
[1]; alamarBlue viability of expanded OPCs, compound at 1 µM, sheet All Tox data
  1 µM (% DMSO): 109.3 % DMSO
[1]; alamarBlue viability of expanded OPCs, compound at 10 µM, sheet All Tox data
  10 µM (% DMSO): 105.9 % DMSO
[2]; 2 uM test compound, relative to quetiapine, sheet "All OLga data"
  OL differentiation, 2 uM (% Quet): -42.5 % Quet
[2]; 10 uM test compound, relative to quetiapine, sheet "All OLga data"
  OL differentiation, 10 uM (% Quet): -89.7 % Quet

## O=C(CCCN1CCC(O)(c2ccc(Cl)cc2)CC1)c1ccc(F)cc1 [Haloperidol]
[1]; [20]
  viability at 0.1 µM: 64%
[1]; [21]
  viability at 1 µM: 69.1%
[1]; [22]
  viability at 10 µM: 45.7%
[2]; Rattus norvegicus, test compound at 0.4 uM, NCC library screen, sheet "All OLga data", relative to quetiapine, read-out: 0.4 uM (% Quet)
  activation at 0.4 µM: -22.3%
[2]; [10]
  activation at 2 µM: 4.1%

## Oc1c(Cl)cc(Cl)c(Cl)c1Cc1c(O)c(Cl)cc(Cl)c1Cl [Hexachlorophene]
[1]; [7]
  0.1 µM (% DMSO): 115.4 % DMSO
[1]; [8]
  1 µM (% DMSO): 10.8 % DMSO
[1]; [9]
  10 µM (% DMSO): 9.0 % DMSO
[2]; Rattus norvegicus, read-out: 0.08 uM (% Quet)
  activation at 0.08 µM: -122%

## CC(=O)NCCCCCCNC(C)=O [Hexamethylene bisacetamide]
[1]; [3]
  viability at 0.1 µM: 80.5%
[1]; [4]
  viability at 1 µM: 83.1%
[1]; [5]
  viability at 10 µM: 87.3%
[2]; [6]
  activation at 2 µM: 4.1%
[2]; [17]
  activation at 10 µM: 12.8%
